In PubChem BioAssay (NCI):
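Grown in 96-well plates, cells were treated for 48 hours with each compound at five concentrations. Insufficient inhibition: endpoint recorded as highest concentration tested. GI50: concentration for 50% inhibition of growth. TGI denotes the concentration required for complete inhibition of growth.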

Legend:
Assay in all cases: NCI anticancer screen, dose series, 48 h
OVCAR-3 ovarian = test system: OVCAR-3 ovarian
NCI-H522 lung = test system: NCI-H522 lung
SW-620 colon = test system: SW-620 colon
IGROV1 ovarian = test system: IGROV1 ovarian
HL-60(TB) leukemia = test system: HL-60(TB) leukemia
SNB-75 CNS = test system: SNB-75 CNS
NCI-H226 lung = test system: NCI-H226 lung
MCF7 breast = test system: MCF7 breast
786-0 renal = test system: 786-0 renal
HOP-92 NSCLC = test system: HOP-92 NSCLC

Compound: COc1ccc(/C(Cl)=C(\C=O)c2ccc(OC)cc2)cc1
- TGI (OVCAR-3 ovarian): > 100 µM
- TGI (NCI-H522 lung): > 100 µM
- TGI (SW-620 colon): > 100 µM
- TGI (IGROV1 ovarian): > 100 µM
- TGI (HL-60(TB) leukemia): 80.9 µM
- TGI (SNB-75 CNS): > 100 µM
- TGI (NCI-H226 lung): > 100 µM

Compound: Cc1c2cccc-2c(OCCO)cc2c3ccccc3n(C)c12
- TGI (MCF7 breast): 20.8 µM
- TGI (OVCAR-3 ovarian): 5.56 µM
- TGI (NCI-H522 lung): 4.8 µM
- TGI (SW-620 colon): 67.3 µM
- TGI (IGROV1 ovarian): 7.77 µM
- TGI (786-0 renal): 16.2 µM
- TGI (HL-60(TB) leukemia): 7.19 µM
- TGI (SNB-75 CNS): 35.5 µM
- TGI (NCI-H226 lung): 24.2 µM
- TGI (HOP-92 NSCLC): 6.13 µM

Compound: CC(C)C(C/C=C1\CC(CO)(COC(=O)C(C)(C)C)OC1=O)C(C)C (stereo not drawn)
- TGI (MCF7 breast): 37.6 µM
- TGI (OVCAR-3 ovarian): 26.4 µM
- TGI (NCI-H522 lung): 29 µM
- TGI (SW-620 colon): 17.1 µM
- TGI (IGROV1 ovarian): 29.4 µM
- TGI (786-0 renal): 14.7 µM
- TGI (SNB-75 CNS): 15.2 µM
- TGI (NCI-H226 lung): 19.8 µM
- TGI (HOP-92 NSCLC): 25 µM

Compound: COc1ccc2c(c1)CCCN2CCCCCCCCCCN(CCC(C)C)CCC(C)C
- TGI (OVCAR-3 ovarian): 17.3 µM
- TGI (NCI-H522 lung): 5.68 µM
- TGI (SW-620 colon): 26.2 µM
- TGI (IGROV1 ovarian): 27.7 µM
- TGI (786-0 renal): 27.5 µM
- TGI (HL-60(TB) leukemia): 9.61 µM
- TGI (NCI-H226 lung): 31.3 µM
- TGI (HOP-92 NSCLC): 17 µM

Compound: COc1ccc(C2=C3SC=c4ccccc4=C3ON=C2c2ccccc2)cc1
- TGI (MCF7 breast): > 100 µM
- TGI (OVCAR-3 ovarian): > 100 µM
- TGI (NCI-H522 lung): > 100 µM
- TGI (SW-620 colon): > 100 µM
- TGI (IGROV1 ovarian): > 100 µM
- TGI (786-0 renal): > 100 µM
- TGI (HL-60(TB) leukemia): > 100 µM
- TGI (NCI-H226 lung): > 100 µM
- TGI (HOP-92 NSCLC): > 100 µM

Compound: N=C1C(=N)c2ccccc2-c2ccccc21.N=C1C(=N)c2ccccc2-c2ccccc21.N=C1C(=N)c2ccccc2-c2ccccc21.[Cl-].[Ru+2]
- TGI (OVCAR-3 ovarian): 3.08 µM
- TGI (NCI-H522 lung): 2.84 µM
- TGI (SW-620 colon): 3.74 µM
- TGI (IGROV1 ovarian): 5.01 µM
- TGI (786-0 renal): 28.5 µM
- TGI (HL-60(TB) leukemia): 3.76 µM
- TGI (SNB-75 CNS): 4.25 µM
- GI50 (HOP-92 NSCLC): 1.6 µM
- TGI (HOP-92 NSCLC): 3.09 µM

Compound: NCCCn1c2c(c3ccc([N+](=O)[O-])cc3c1=O)C(=O)c1ccccc1-2
- GI50 (MCF7 breast): 0.0122 µM
- TGI (MCF7 breast): > 50 µM
- GI50 (OVCAR-3 ovarian): 0.0966 µM
- TGI (OVCAR-3 ovarian): 0.525 µM
- GI50 (NCI-H522 lung): 0.462 µM
- TGI (NCI-H522 lung): > 50 µM
- GI50 (SW-620 colon): 0.0215 µM
- TGI (SW-620 colon): 1.24 µM
- GI50 (IGROV1 ovarian): 0.215 µM
- TGI (IGROV1 ovarian): > 50 µM
- GI50 (HL-60(TB) leukemia): 0.031 µM
- TGI (HL-60(TB) leukemia): > 19.3 µM
- GI50 (SNB-75 CNS): 0.835 µM
- TGI (SNB-75 CNS): 2.67 µM
- GI50 (NCI-H226 lung): 0.0151 µM
- TGI (NCI-H226 lung): 0.118 µM
- GI50 (HOP-92 NSCLC): 0.34 µM
- TGI (HOP-92 NSCLC): 1.72 µM

Compound: Cc1cc(/N=C/c2ccc(F)cc2)n(-c2ccccc2)n1
- TGI (MCF7 breast): > 100 µM
- TGI (OVCAR-3 ovarian): > 100 µM
- TGI (NCI-H522 lung): > 100 µM
- TGI (SW-620 colon): > 100 µM
- TGI (IGROV1 ovarian): > 100 µM
- TGI (786-0 renal): > 100 µM
- TGI (HL-60(TB) leukemia): > 100 µM
- TGI (SNB-75 CNS): > 100 µM
- TGI (NCI-H226 lung): > 100 µM
- TGI (HOP-92 NSCLC): > 100 µM

Compound: CC(=O)NNc1nc(-c2ccc([N+](=O)[O-])cc2)c(C#N)c(=O)n1C
- TGI (MCF7 breast): 97.3 µM
- TGI (OVCAR-3 ovarian): 31.4 µM
- TGI (NCI-H522 lung): 45.6 µM
- TGI (SW-620 colon): > 100 µM
- TGI (IGROV1 ovarian): 35 µM
- TGI (786-0 renal): 47 µM
- TGI (HL-60(TB) leukemia): 82.6 µM
- TGI (SNB-75 CNS): 54.9 µM
- TGI (HOP-92 NSCLC): 33.3 µM

Compound: CC(=O)O[C@H]1CC[C@@]2(C)C(=CC[C@H]3[C@@H]4C/C(=C\c5ccc(N(C)C)cc5)[C@H](OC(C)=O)[C@@]4(C)CC[C@@H]32)C1
- TGI (MCF7 breast): 26.6 µM
- TGI (OVCAR-3 ovarian): 41.8 µM
- TGI (SW-620 colon): 46.4 µM
- TGI (IGROV1 ovarian): 28.4 µM
- TGI (786-0 renal): 19.1 µM
- TGI (HL-60(TB) leukemia): 41.2 µM
- TGI (SNB-75 CNS): > 100 µM
- TGI (NCI-H226 lung): 33.4 µM

Compound: CSc1ccsc1-c1sc(-c2cc(SC)c(-c3sc(-c4cc(SC)c(-c5sccc5SC)s4)cc3SC)s2)cc1SC
- TGI (MCF7 breast): > 100 µM
- TGI (OVCAR-3 ovarian): > 100 µM
- TGI (NCI-H522 lung): > 100 µM
- TGI (SW-620 colon): 69.7 µM
- TGI (IGROV1 ovarian): > 100 µM
- TGI (786-0 renal): 29.1 µM
- TGI (HL-60(TB) leukemia): 8.9 µM
- TGI (HOP-92 NSCLC): > 100 µM

Compound: CCSC1=N/C(=C\c2ccc(N(C)C)cc2)C(Cl)=N1
- TGI (MCF7 breast): > 100 µM
- TGI (OVCAR-3 ovarian): > 100 µM
- TGI (NCI-H522 lung): > 100 µM
- TGI (SW-620 colon): > 100 µM
- TGI (IGROV1 ovarian): > 100 µM
- TGI (786-0 renal): > 100 µM
- TGI (HL-60(TB) leukemia): > 100 µM
- TGI (SNB-75 CNS): > 100 µM
- TGI (NCI-H226 lung): > 100 µM
- TGI (HOP-92 NSCLC): > 100 µM

Compound: NCCc1cc(O)c(O)cc1O
- TGI (MCF7 breast): 44.4 µM
- TGI (OVCAR-3 ovarian): 58.4 µM
- GI50 (NCI-H522 lung): 1.53 µM
- TGI (NCI-H522 lung): 3.44 µM
- TGI (SW-620 colon): 40 µM
- TGI (IGROV1 ovarian): 38.2 µM
- TGI (786-0 renal): > 69.1 µM
- GI50 (HL-60(TB) leukemia): 12.8 µM
- TGI (HL-60(TB) leukemia): 65.6 µM
- TGI (SNB-75 CNS): 70.6 µM
- GI50 (NCI-H226 lung): 29.6 µM
- TGI (NCI-H226 lung): > 100 µM
- GI50 (HOP-92 NSCLC): 10 µM
- TGI (HOP-92 NSCLC): 59.5 µM

Compound: CN(C)CCCn1cnc2cc(Cl)c(Cl)cc21
- TGI (MCF7 breast): > 100 µM
- TGI (OVCAR-3 ovarian): > 100 µM
- TGI (NCI-H522 lung): > 100 µM
- TGI (SW-620 colon): > 100 µM
- TGI (IGROV1 ovarian): > 100 µM
- TGI (786-0 renal): > 100 µM
- TGI (HL-60(TB) leukemia): > 100 µM
- TGI (SNB-75 CNS): 98.9 µM
- TGI (NCI-H226 lung): > 100 µM

Compound: CCc1nc(N)nc(N)c1-c1ccc([N+](C)(C)C)cc1
- TGI (MCF7 breast): > 100 µM
- TGI (OVCAR-3 ovarian): > 100 µM
- TGI (NCI-H522 lung): > 100 µM
- TGI (SW-620 colon): > 100 µM
- TGI (IGROV1 ovarian): > 100 µM
- TGI (786-0 renal): > 100 µM
- TGI (HL-60(TB) leukemia): > 100 µM
- TGI (SNB-75 CNS): > 100 µM
- TGI (NCI-H226 lung): > 100 µM
- TGI (HOP-92 NSCLC): > 100 µM
